We go through 15 compounds from patent US8455534B2, “Estrogen receptor modulators and uses thereof” (Aragon Pharmaceuticals, Inc., priority 2010, dated 2013).

Molecules are shown by their SMILES. pIC50: −log10 of the molar value.

One assay concerns the target T1, ER-α (Homo sapiens, UniProt P03372).
T1 sequence (P03372 1-595): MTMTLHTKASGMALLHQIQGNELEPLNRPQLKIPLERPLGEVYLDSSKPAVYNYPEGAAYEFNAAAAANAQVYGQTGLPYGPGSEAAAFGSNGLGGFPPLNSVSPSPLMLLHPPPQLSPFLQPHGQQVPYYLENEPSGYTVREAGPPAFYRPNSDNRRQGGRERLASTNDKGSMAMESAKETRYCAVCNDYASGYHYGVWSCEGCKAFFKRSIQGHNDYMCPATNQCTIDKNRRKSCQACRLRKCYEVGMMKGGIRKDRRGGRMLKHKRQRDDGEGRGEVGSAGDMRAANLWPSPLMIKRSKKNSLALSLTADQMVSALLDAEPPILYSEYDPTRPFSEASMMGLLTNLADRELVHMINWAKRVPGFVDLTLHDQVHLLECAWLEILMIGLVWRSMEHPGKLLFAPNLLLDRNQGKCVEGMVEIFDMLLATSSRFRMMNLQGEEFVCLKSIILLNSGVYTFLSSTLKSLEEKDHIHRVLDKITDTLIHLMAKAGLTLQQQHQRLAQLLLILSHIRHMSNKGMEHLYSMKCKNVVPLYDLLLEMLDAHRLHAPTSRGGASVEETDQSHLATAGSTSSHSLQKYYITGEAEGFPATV
The experiment in a line: Breast Cancer Cell ER-α In Cell Western Assay (SP1). The class given is cell-based. Particulars: MCF-7 cells, SP1 antibody, 4 or 24 hr post compound addition; for Emax: MCF7, read-out: ER-α In Cell Western Assay (SP1) Max Response; for DC50: read-out: ER-α In Cell Western Assay (SP1) IC50. A digest of the protocol:
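ER-α protein levels measured by in-cell western with SP1 antibody, ratioed to DRAQ5 DNA signal and given as percent of untreated controls. Compounds added at 0.3–0.000003 μM final (eleven semilog points) to adherent MCF-7 cells in stripped serum; exposure 4 or 24 h before fixation.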

Another assay relates to MCF-7 cells. The experiment in a line: Breast Cancer Cell Viability Assay (MCF-7, CellTiter-Glo). Conditions: 5 days' compound exposure; for pIC50: Homo sapiens, MCF7, 120 h. The class given is cell-based. A digest of the protocol: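 MCF-7 cells, 320 per well in RPMI with 10% FBS and 20 mM HEPES, adhered overnight, then exposed 5 days to an eleven-point semilog dilution (final 0.3-0.000003 μM). CellTiter-Glo luminescence read; % viability = (sample − cell-free background)/(untreated − background) × 100.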
A general note: Cellular ATP, detected with luciferase, serves as a proxy for viable cell number.

What is called pIC50 is −log10 of the IC50, conventionally taken in molar units. Lower therefore signals a large IC50.

Regarding `O=C(O)/C=C/c1ccc(/C(=C(/CCF)c2ccc(F)cc2Cl)c2ccc3[nH]ncc3c2)cc1` [Compound 120, (E)-3-(4-((E)-2-(2-Chloro-4-fluorophenyl)-4-fluoro-1-(1H-indazol-5-yl)but-1-en-1-yl)phenyl)acrylic acid], on ER-α, the Emax was no less than 40% and the DC50 was no more than 100 nM. In the assay on MCF-7 cells, the “MCF7 Viability Assay Max Response” value is recorded as “++ (++ = a single % value ≧ 40%)” and the pIC50 was no less than 7.00.
`CC/C(=C(/c1ccc(/C=C/C(=O)O)cc1)c1ccc2[nH]ncc2c1)c1ccc(OC)cc1Cl` [Compound 121, (E)-3-(4-((E)-2-(2-Chloro-4-methoxyphenyl)-1-(1H-indazol-5-yl)but-1-en-1-yl)phenyl)acrylic acid]: at ER-α, the Emax was no less than 40% and the DC50 was no more than 100 nM. In addition, in the assay with MCF-7 cells, the “MCF7 Viability Assay Max Response” value is “++ (++ = a single % value ≧ 40%)” and the pIC50 is no less than 7.00.
Taken in the same sequence, the figures for `O=C(O)/C=C/c1ccc(/C(=C(/CCF)c2ccc(Cl)cc2Cl)c2ccc3[nH]ncc3c2F)cc1` [Compound 122, (E)-3-(4-((E)-2-(2,4-Dichlorophenyl)-4-fluoro-1-(4-fluoro-1H-indazol-5-yl)but-1-en-1-yl)phenyl)acrylic acid] were no less than 40%, no more than 100 nM, “++ (++ = a single % value ≧ 40%)” and no less than 7.00.
Taken in the same sequence, the figures for `O=C(O)/C=C/c1ccc(/C(=C(\c2ccc(Cl)cc2Cl)C2CC2)c2ccc3[nH]ncc3c2F)cc1` [Compound 123, (E)-3-(4-((E)-2-Cyclopropyl-2-(2,4-dichlorophenyl)-1-(4-fluoro-1H-indazol-5-yl)vinyl)phenyl)acrylic acid] were no less than 40%, no more than 100 nM, “++ (++ = a single % value ≧ 40%)” and no less than 7.00.
Taken in the same sequence, the figures for `O=C(O)/C=C/c1ccc(/C(=C(\c2ccc(F)cc2Cl)C2CC2)c2ccc3[nH]ncc3c2F)cc1` [Compound 124, (E)-3-(4-((E)-2-(2-Chloro-4-fluorophenyl)-2-cyclopropyl-1-(4-fluoro-1H-indazol-5-yl)vinyl)phenyl)acrylic acid] were no less than 40%, no more than 100 nM, “++ (++ = a single % value ≧ 40%)” and no less than 7.00.
As to `O=C(O)/C=C/c1ccc(/C(=C(\c2ccc(Cl)cc2Cl)C2CC2)c2ccc3[nH]ncc3c2)cc1` [Compound 125, (E)-3-(4-((E)-2-Cyclopropyl-2-(2,4-dichlorophenyl)-1-(1H-indazol-5-yl)vinyl)phenyl)acrylic acid], on ER-α, the Emax was no less than 40% and the DC50 was no more than 100 nM. For the same compound, in the assay on MCF-7 cells, the “MCF7 Viability Assay Max Response” value is reported as “++ (++ = a single % value ≧ 40%)” and the pIC50 was no less than 7.00.
Turning to `Cc1cc(Cl)ccc1/C(=C(\c1ccc(/C=C/C(=O)O)cc1)c1ccc2[nH]ncc2c1)C1CC1` [Compound 126, (E)-3-(4-((E)-2-(4-Chloro-2-methylphenyl)-2-cyclopropyl-1-(1H-indazol-5-yl)vinyl)phenyl)acrylic acid], on ER-α, the Emax is no less than 40% and the DC50 is no more than 100 nM. Also, in the assay with MCF-7 cells, the “MCF7 Viability Assay Max Response” value was “++ (++ = a single % value ≧ 40%)” and the pIC50 was no less than 7.00.
Taken in the same sequence, the figures for `CC/C(=C(/c1ccc(/C=C/C(=O)O)cc1)c1ccc2[nH]ncc2c1)c1cc(S(C)(=O)=O)ccc1C` [Compound 127, (E)-3-(4-((E)-1-(1H-Indazol-5-yl)-2-(2-methyl-5-(methylsulfonyl)phenyl)but-1-en-1-yl)phenyl)acrylic acid] were less than 40%, greater than 100 nM, “+ (+ = a single % value < 40%)” and less than 7.00.
Taken in the same sequence, the figures for `CC/C(=C(/c1ccc(/C=C/C(=O)O)cc1)c1ccc2[nH]ncc2c1)c1ccc(OC)cc1C` [Compound 128, (E)-3-(4-((E)-1-(1H-Indazol-5-yl)-2-(4-methoxy-2-methylphenyl)but-1-en-1-yl)phenyl)acrylic acid] were no less than 40%, no more than 100 nM, “++ (++ = a single % value ≧ 40%)” and no less than 7.00.
Taken in the same sequence, the figures for `CC/C(=C(/c1ccc(/C=C/C(=O)O)cc1)c1ccc2[nH]ncc2c1)c1ccc(OC)cc1F` [Compound 129, (E)-3-(4-((E)-2-(2-Fluoro-4-methoxyphenyl)-1-(1H-indazol-5-yl)but-1-en-1-yl)phenyl)acrylic acid] were no less than 40%, no more than 100 nM, “++ (++ = a single % value ≧ 40%)” and no less than 7.00.
With `CC/C(=C(/c1ccc(/C=C/C(=O)O)cc1)c1ccc2[nH]ncc2c1)c1cc(OC)ccc1Cl` [Compound 130, (E)-3-(4-((E)-2-(2-Chloro-5-methoxyphenyl)-1-(1H-indazol-5-yl)but-1-en-1-yl)phenyl)acrylic acid], at ER-α, the Emax was no less than 40% and the DC50 is no more than 100 nM. In addition, in the assay on MCF-7 cells, the “MCF7 Viability Assay Max Response” value is “++ (++ = a single % value ≧ 40%)” and the pIC50 is no less than 7.00.
Taken in the same sequence, the figures for `CC/C(=C(/c1ccc(/C=C/C(=O)O)cc1)c1ccc2[nH]ncc2c1)c1ccc(S(C)(=O)=O)cc1F` [Compound 131, (E)-3-(4-((E)-2-(2-Fluoro-4-(methylsulfonyl)phenyl)-1-(1H-indazol-5-yl)but-1-en-1-yl)phenyl)acrylic acid] were no less than 40%, greater than 100 nM, “++ (++ = a single % value ≧ 40%)” and less than 7.00.
Taken in the same sequence, the figures for `[2H]C([2H])([2H])C([2H])([2H])/C(=C(/c1ccc(/C=C/C(=O)O)cc1)c1ccc2[nH]ncc2c1)c1ccc(Cl)cc1Cl` [Compound 132, (E)-3-(4-((E)-2-(2,4-Dichlorophenyl)-3,3,4,4,4-pentadeutero-1-(1H-indazol-5-yl)but-1-en-1-yl)phenyl)acrylic acid] were no less than 40%, no more than 100 nM, “++ (++ = a single % value ≧ 40%)” and no less than 7.00.
Turning to `CC/C(=C(/c1ccc(/C=C/C(=O)O)cc1)c1ccc2[nH]ncc2c1)c1cccc(S(C)(=O)=O)c1` [Compound 133, (E)-3-(4-((E)-1-(1H-Indazol-5-yl)-2-(3-(methylsulfonyl)phenyl)but-1-en-1-yl)phenyl)acrylic acid], on ER-α, the Emax is no less than 40% and the DC50 was greater than 100 nM. Further, in the assay with MCF-7 cells, the “MCF7 Viability Assay Max Response” value is “+ (+ = a single % value < 40%)” and the pIC50 was less than 7.00.
Taken in the same sequence, the figures for `CC/C(=C(/c1ccc(/C=C/C(=O)O)cc1)c1cc(F)c2[nH]ncc2c1)c1ccc(Cl)cc1Cl` [Compound 134, (E)-3-(4-((E)-2-(2,4-Dichlorophenyl)-1-(7-fluoro-1H-indazol-5-yl)but-1-en-1-yl)phenyl)acrylic acid] were no less than 40%, no more than 100 nM, “++ (++ = a single % value ≧ 40%)” and no less than 7.00.
